# Assays:
# physchem = conditions: octanol/water phosphate buffer, pH 7.4
# [1] = target: T1, Tyrosine-protein kinase JAK3 (Homo sapiens, UniProt P52333); test: Inhibition of human JAK3 using fluorescence labeled peptide as substrate and using ATP at its Km level by microfluidic based mobility shift assay
# T1 sequence (P52333 whole entry): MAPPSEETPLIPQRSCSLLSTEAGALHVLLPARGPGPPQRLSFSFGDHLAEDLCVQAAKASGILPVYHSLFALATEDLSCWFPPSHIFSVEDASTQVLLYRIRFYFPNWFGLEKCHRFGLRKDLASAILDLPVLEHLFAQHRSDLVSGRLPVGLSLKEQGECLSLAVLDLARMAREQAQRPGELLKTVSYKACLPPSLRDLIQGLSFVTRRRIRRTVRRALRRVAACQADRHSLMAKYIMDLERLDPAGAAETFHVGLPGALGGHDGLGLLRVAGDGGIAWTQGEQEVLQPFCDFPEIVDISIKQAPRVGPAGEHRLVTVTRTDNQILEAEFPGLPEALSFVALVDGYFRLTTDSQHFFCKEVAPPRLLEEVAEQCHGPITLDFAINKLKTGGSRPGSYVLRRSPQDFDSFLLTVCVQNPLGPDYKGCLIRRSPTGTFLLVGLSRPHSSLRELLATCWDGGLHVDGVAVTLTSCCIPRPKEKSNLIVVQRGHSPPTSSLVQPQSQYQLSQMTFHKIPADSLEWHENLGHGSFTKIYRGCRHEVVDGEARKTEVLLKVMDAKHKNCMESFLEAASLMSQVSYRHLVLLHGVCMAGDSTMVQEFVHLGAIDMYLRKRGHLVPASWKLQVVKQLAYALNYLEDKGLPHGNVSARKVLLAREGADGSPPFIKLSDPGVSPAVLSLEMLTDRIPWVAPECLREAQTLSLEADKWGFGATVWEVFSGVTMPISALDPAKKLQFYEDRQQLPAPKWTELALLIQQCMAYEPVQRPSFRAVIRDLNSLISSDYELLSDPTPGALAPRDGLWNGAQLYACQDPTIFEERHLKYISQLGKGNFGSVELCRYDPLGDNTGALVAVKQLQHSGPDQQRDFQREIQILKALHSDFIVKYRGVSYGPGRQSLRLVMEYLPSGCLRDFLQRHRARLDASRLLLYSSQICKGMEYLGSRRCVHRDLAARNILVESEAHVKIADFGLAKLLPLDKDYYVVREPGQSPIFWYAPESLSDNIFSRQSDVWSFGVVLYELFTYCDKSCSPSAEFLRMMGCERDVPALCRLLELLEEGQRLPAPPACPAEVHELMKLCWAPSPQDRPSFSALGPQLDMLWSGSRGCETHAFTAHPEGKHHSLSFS
# [2] = target: T2, Non-receptor tyrosine-protein kinase TYK2 (Homo sapiens, UniProt P29597); test: Inhibition of human TYK2 using fluorescence labeled peptide as substrate and using ATP at its Km level by microfluidic based mobility shift assay
# T2 sequence (P29597 whole entry): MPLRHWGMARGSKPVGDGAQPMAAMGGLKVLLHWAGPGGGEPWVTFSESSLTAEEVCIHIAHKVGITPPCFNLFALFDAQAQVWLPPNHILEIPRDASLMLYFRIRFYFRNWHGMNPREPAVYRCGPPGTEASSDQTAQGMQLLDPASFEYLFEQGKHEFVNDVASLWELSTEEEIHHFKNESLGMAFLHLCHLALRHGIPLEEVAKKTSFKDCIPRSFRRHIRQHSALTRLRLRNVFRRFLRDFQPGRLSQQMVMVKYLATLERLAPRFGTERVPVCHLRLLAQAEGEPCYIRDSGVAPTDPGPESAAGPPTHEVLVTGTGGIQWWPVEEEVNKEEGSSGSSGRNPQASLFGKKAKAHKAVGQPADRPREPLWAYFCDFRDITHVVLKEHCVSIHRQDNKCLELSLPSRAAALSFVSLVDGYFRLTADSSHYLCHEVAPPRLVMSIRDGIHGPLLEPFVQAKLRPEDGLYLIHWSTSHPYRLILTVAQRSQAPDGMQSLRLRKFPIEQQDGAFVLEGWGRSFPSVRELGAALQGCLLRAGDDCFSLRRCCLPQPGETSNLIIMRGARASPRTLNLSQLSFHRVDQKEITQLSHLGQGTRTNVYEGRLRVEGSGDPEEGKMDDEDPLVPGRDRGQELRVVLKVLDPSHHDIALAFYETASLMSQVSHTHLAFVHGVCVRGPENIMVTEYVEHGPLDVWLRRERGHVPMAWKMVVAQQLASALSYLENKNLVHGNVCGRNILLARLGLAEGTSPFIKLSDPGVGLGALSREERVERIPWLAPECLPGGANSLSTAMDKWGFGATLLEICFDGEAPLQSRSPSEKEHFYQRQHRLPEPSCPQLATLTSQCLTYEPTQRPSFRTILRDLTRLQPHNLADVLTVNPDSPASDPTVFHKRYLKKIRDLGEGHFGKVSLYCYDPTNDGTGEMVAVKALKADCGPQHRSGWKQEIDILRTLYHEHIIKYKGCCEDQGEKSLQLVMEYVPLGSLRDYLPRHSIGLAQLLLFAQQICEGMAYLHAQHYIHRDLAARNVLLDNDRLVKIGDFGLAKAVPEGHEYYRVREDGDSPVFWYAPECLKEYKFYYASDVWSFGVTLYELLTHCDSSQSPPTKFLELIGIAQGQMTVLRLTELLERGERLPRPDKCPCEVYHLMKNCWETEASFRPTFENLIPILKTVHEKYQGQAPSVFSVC
# [3] = target: T3, Tyrosine-protein kinase JAK2 (Homo sapiens, UniProt O60674); test: Inhibition of human JAK2 using fluorescence labeled peptide as substrate and using ATP at its Km level by microfluidic based mobility shift assay
# T3 sequence (O60674 whole entry): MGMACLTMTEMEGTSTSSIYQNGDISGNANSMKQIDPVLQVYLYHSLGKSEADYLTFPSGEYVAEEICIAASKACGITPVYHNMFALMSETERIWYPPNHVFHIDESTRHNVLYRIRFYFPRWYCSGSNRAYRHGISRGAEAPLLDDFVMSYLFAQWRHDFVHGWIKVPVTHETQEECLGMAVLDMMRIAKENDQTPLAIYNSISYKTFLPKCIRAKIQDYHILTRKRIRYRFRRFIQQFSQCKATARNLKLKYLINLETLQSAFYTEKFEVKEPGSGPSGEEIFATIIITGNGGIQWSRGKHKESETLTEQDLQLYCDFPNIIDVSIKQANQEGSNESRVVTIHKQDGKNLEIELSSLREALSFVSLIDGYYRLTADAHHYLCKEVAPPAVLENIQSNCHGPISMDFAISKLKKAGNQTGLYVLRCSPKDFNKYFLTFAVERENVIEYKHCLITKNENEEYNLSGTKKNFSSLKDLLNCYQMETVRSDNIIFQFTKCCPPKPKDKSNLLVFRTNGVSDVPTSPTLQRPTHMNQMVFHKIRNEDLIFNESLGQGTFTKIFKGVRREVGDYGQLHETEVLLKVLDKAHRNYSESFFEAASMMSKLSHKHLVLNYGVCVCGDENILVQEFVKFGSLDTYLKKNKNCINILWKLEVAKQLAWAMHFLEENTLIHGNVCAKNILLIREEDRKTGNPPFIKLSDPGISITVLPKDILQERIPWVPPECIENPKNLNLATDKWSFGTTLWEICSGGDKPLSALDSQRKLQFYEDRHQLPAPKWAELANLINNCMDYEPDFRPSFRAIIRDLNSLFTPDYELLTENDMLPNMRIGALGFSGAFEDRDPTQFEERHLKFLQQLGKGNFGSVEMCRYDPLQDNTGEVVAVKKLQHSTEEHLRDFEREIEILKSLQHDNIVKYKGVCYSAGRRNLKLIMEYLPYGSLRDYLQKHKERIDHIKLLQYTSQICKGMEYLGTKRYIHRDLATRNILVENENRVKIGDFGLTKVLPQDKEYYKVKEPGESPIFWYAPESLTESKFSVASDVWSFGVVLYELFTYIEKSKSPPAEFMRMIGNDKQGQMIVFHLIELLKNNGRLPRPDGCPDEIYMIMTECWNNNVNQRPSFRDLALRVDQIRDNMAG
# [4] = target: T4, Tyrosine-protein kinase JAK1 (Homo sapiens, UniProt P23458); test: Inhibition of human JAK1 using fluorescence labeled peptide as substrate and using ATP at its Km level by microfluidic based mobility shift assay
# T4 sequence (P23458 whole entry): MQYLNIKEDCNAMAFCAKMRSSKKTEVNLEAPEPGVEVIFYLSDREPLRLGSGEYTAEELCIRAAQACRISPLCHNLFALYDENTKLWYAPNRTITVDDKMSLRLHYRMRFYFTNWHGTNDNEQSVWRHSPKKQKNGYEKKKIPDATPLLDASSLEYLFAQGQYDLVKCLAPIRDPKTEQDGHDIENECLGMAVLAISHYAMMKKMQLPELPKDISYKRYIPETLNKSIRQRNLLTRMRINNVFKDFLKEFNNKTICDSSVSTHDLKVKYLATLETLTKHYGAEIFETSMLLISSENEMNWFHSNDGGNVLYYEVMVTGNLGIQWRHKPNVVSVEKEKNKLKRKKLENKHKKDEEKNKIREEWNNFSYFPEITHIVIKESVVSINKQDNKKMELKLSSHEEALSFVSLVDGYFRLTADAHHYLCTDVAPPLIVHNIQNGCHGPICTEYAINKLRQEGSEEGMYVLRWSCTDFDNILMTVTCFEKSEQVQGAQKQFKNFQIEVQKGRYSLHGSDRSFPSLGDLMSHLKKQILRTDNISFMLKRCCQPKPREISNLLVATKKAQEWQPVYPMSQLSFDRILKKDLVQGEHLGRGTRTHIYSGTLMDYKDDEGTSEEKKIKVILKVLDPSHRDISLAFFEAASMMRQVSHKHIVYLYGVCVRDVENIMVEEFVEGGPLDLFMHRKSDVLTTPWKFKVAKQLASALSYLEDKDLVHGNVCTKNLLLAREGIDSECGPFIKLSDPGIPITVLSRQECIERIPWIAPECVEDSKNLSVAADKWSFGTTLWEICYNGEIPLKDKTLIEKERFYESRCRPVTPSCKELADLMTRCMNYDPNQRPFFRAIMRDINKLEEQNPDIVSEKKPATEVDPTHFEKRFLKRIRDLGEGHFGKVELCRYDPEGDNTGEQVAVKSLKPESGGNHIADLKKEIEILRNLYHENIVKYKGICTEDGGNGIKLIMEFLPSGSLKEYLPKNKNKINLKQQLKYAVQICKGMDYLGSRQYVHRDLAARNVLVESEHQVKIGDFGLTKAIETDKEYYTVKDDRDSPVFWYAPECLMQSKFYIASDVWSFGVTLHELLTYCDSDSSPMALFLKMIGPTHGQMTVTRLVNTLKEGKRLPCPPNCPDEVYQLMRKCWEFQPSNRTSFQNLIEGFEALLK
# [5] = target: T1, Tyrosine-protein kinase JAK3
# [6] = target: T3, Tyrosine-protein kinase JAK2
# [7] = target: T2, Non-receptor tyrosine-protein kinase TYK2
# [8] = target: T4, Tyrosine-protein kinase JAK1
# JAK1/TYK2 [9] = target: T5, JAK1/TYK2 (Homo sapiens, UniProt P23458+P29597)
# T5 sequence (P23458 whole entry): as above
# T5 sequence (P29597 whole entry): as the sequence (P29597 whole entry) above
# [10] = target: T3, Tyrosine-protein kinase JAK2; remark: listed apart in the source
# [11] = Passive apparent permeability from apical to basolateral side in RRCK cells; assay type: ADME, cell-based, Canis lupus familiaris, MDCKII-LE; conditions: dog, MDCK
# [12] = target: T3, Tyrosine-protein kinase JAK2; remark: listed apart in the source
# JAK1/TYK2 [13] = target: T5, JAK1/TYK2; test: Inhibition of JAK1/TYK2 signaling pathway in human lymphocytes of whole blood assessed as reduction in IFN-alpha induced STAT3 phosphorylation preincubated for 45 mins followed by IFN-alpha addition and measured measured after 15 mins by FACS assay; assay type: cell-based
Structure (SMILES),logD (physchem),IC50 [5] [µM],IC50 [6] [µM],IC50 [7] [µM],IC50 [8] [µM],fIC50 (JAK1/TYK2 [9]) [nM],fIC50 [10] [nM],further results
CCNC(=O)c1ccc(Nc2nccc(N3C[C@H]4C[C@@H]3CN4C(=O)CC#N)n2)cc1,0.9,,,,,,,IC50 [1]: > 10 µM; IC50 [2]: 2.69 µM; IC50 [3]: > 4.22 µM; IC50 [4]: 7.18 µM
CCNC(=O)c1ccc(Nc2nccc(N3CCN(C(=O)CC#N)CC3)n2)cc1,,,,,,,,IC50 [1]: 8.74 µM; IC50 [2]: 0.368 µM; IC50 [3]: 1.08 µM; IC50 [4]: 3.06 µM
CCNC(=O)c1ccc(Nc2nccc(N3C[C@@H]4CC[C@H]3CN4C(=O)C3CC3)n2)cc1,2.16,> 10,2.78,0.148,0.748,,,
CCNC(=O)c1ccc(Nc2nccc(N3C[C@@H]4C[C@H]3CN4C(=O)CC#N)n2)cc1,0.9,> 10,> 9.97,0.774,3.71,,,IC50 [1]: > 4.95 µM; IC50 [2]: 0.023 µM; IC50 [3]: 0.366 µM; IC50 [4]: 0.358 µM
CCNC(=O)c1ccc(Nc2nccc(N3C[C@H]4C[C@@H](C3)N4C(=O)C3CC3)n2)cc1,2.15,,,,,,,
CCNC(=O)c1ccc(Nc2nccc(N3C[C@@H]4C[C@H]3CN4C(=O)C3CC3)n2)cc1,1.96,> 10,> 10,1.74,> 9.52,,,
"CCNC(=O)c1ncc(Nc2ncc(F)c(N3CC4CC[C@H](C3)N4C(=O)C3CC3)n2)cc1C (single isomer, unassigned)",3.21,4.96,0.692,0.048,0.234,91,11,Papp A→B [11]: 5.6 to 18.8 ×10⁻⁶ cm/s; IC50 [12]: 12.2 µM; IC50 (JAK1/TYK2 [13]): 0.385 µM
"CCNC(=O)c1ccc(Nc2ncc(F)c(N3CC4CC[C@H](C3)N4C(=O)C3CC3)n2)nc1 (single isomer, unassigned)",2.71,> 10,> 10,7.2,> 10,,,Papp A→B [11]: 5.6 to 18.8 ×10⁻⁶ cm/s
"O=C(C1CC1)N1C2CC[C@@H]1CN(c1nc(Nc3cnn(CCO)c3)ncc1F)C2 (single isomer, unassigned)",1.78,,,,,70,10,Papp A→B [11]: 5.6 to 18.8 ×10⁻⁶ cm/s
"CCNC(=O)c1ccc(Nc2ncc(F)c(N3CC4CC[C@H](C3)N4C(=O)C3CC3)n2)cc1 (single isomer, unassigned)",2.88,,,,,,,
"Cn1cc(Nc2ncc(F)c(N3CC4CC[C@H](C3)N4C(=O)C3CC3)n2)cn1 (single isomer, unassigned)",2.13,2.88,0.488,0.053,0.076,84,8,Papp A→B [11]: 5.6 to 18.8 ×10⁻⁶ cm/s; IC50 [12]: 6.28 µM; IC50 (JAK1/TYK2 [13]): 0.144 µM

# Second part, led by results:
logD (physchem),IC50 [5] [µM],IC50 [6] [µM],IC50 [7] [µM],IC50 [8] [µM],fIC50 (JAK1/TYK2 [9]) [nM],fIC50 [10] [nM],Structure (SMILES),further results
1.55,,,,,,,"Cn1cc(Nc2nccc(N3CC4CC[C@H](C3)N4C(=O)[C@H]3CC3(F)F)n2)cn1 (single isomer, unassigned)",
1.44,,,,,60,14,"CCNC(=O)N1C2CC[C@@H]1CN(c1ccnc(Nc3cnn(C)c3)n1)C2 (single isomer, unassigned)",
0.97,,,,,73,28,"Cn1cc(Nc2nccc(N3CC4CC[C@H](C3)N4C(=O)NCC#N)n2)cn1 (single isomer, unassigned)",Papp A→B [11]: 0.6 ×10⁻⁶ cm/s
1.72,6.87,0.146,0.028,0.014,26,15,"Cn1cc(Nc2nccc(N3CC4CC[C@H](C3)N4C(=O)NCC(F)(F)F)n2)cn1 (single isomer, unassigned)",IC50 [12]: 1.16 µM; IC50 (JAK1/TYK2 [13]): 0.051 µM
1.52,,,,,91,11,"Cn1cc(Nc2nccc(N3CC4CC[C@H](C3)N4C(=O)C3CC3)n2)cn1 (single isomer, unassigned)",
1.86,,,,,,,"CCNC(=O)c1ccc(Nc2nccc(N3CC4CC[C@H](C3)N4C(=O)C3CC3)n2)cc1 (single isomer, unassigned)",

# Reference: ChEMBL document CHEMBL4411260, “Dual Inhibition of TYK2 and JAK1 for the Treatment of Autoimmune Diseases: Discovery of (( S)-2,2-Difluorocyclopropyl)((1 R,5 S)-3-(2-((1-methyl-1 H-pyrazol-4-yl)amino)pyrimidin-4-yl)-3,8-diazabicyclo[3.2.1]octan-8-yl)methanone (PF-06700841)” (J Med Chem, 2018)
